Experimental data reported in patent US20120004160A1, “METHODS FOR IDENTIFYING AND COMPOUNDS USEFUL FOR THE DIAGNOSIS AND TREATMENT OF DISEASES INVOLVING INFLAMMATION” (Glaxo Group Ltd., priority 2009, published 2012).

tested on: human primary macrophages; assay: IL-10 release measured in the same supernatant (additional cytokine measurements); assay type: cell-based; details: effect of Ad-shRNA on IL-10 release; supernatant of on-target assay, macrophages triggered with IgG-coated beads; symbols not defined
Description: 20 μL of supernatant was used in a TNFα readout assay (Meso Scale Discovery, (MSD), Gaithersburg, Md.). The measurements were performed according to manufacturer's instructions. 20 μL of sample solution were transferred by Tecan384 head on a Tecan freedom station to wells of a 384 well TNFα MSD readout plate(Meso Scale Discovery Catalog #K211BHB-6). A calibrator curve using calibrator from MSD was created using a multichannel pipette. The calibrator curve typically started at 10 ng/mL followed by 6 steps of a 3-fold dilution with a final volume of 10 μL. Plates were sealed and incubated for 2 hours on a shaking platform (set at ˜100 rounds per minute) at room temperature. Detection antibody (1.0 μg/mL) was added to the wells (10 μL for the calibrator and 20 μL for the samples) using a repetitive multichannel. Plates were sealed and incubated overnight at room temperature on a shaking platform (set at ˜100 rounds per minute). The plates were washed 3 times with PBS+0.05% Tween-20 using a Tecan washer (TECAN type, PW384). 35 μl of 2× Read Buffer T was added to each well using a multidrop. After addition of Read Buffer, the plates were read on an MSD SI6000 reader.
For the measurements of additional cytokines, such as IL-10, the supernatants were transferred using the TECAN Freedom with a TEMO-384 head. The cytokines were measured using 384 well plates purchased at Meso Scale Discovery and the methodology used is the same as described in Example 5. Hits were prioritized based on effects on IL-10 release.
In an shRNA screen there is the possibility that the observed effects are due to off-target effects: the shRNA knock down construct has an effect on expression of a different mRNA than the intended mRNA. To exclude possible off-target effects by the knockdown constructs the following “on-target” analysis was followed. For each target, the original Ad-shRNA plus 5 extra Ad-shRNA constructs against the same target were tested in the primary screening assay. If at least two independent shRNA sequences (including original confirmed drug targetAd-shRNA) give the same effect in one donor, the probability this is due to off target shRNA effects is negligible and the effect is declared “on-target”. For the on-target assay, the methods similar to the screen and rescreen were used as described in Examples 5 and 6. The TNFα release assay was performed as per Rescreen (see Example 6) except that the negative control viruses (Luc_v13) were repropagated alongside the on-target viruses. In total, 40 targets were taken along in the on-target assay, and for 15 targets multiple shRNA came up as a hit. In addition, IL-10 release was measured in the same supernatant as described in Examples 5 and 7. Table 3 indicates the effects of the shRNAs on the IL-10 release.

IL-10 sparing, ✓:
CTTGTGCGATGCTTTGAAC: Ad-shRNA knock-down construct, KD target sequence against ATIC
GGTGTCTTACTGCTGACTC: Ad-shRNA knock-down construct, target sequence against TNFRSF11A (Table 3 only, no SEQ ID NO) (the letters are possibly those of the target site)
CTCAGGAAGGTCTTTCCAC: Ad-shRNA knock-down construct, KD target sequence against SNF1LK
GTTCTGCTGTGCATCTGCC: Ad-shRNA knock-down construct, KD target sequence against OPRL1
TGTCTACACCACTGCTGCC: Ad-shRNA knock-down construct, KD target sequence against RYR1 (the letters are possibly those of the target site; listed as Homo sapiens)
ATGACCCTACAGGTTTACC: Ad-shRNA knock-down construct, KD target sequence against NEK10
CTTGTGTGCCAGTGGATGC: Ad-shRNA knock-down construct, KD target sequence against BRS3
CCAATGGTTACATGGCTCC: Ad-shRNA knock-down construct, KD target sequence against GRK7
AGACATGGATGGGAAAGAC: Ad-shRNA knock-down construct, KD target sequence against CBR3 (the letters are possibly those of the target site)
TATGCTGTAGGCTGCCTGC: Ad-shRNA knock-down construct, KD target sequence against PIK3CB (listed as Homo sapiens)
CATACTGGAGCCTGTAACC: Ad-shRNA knock-down construct, KD target sequence against TNFRSF10C
